Data on 13 compounds can be found in patent publication US11339130B1 (Blade Therapeutics, Inc., priority 2016, dated 2022).

Read-outs that look alike come from different tables or passages of the source. A value given as a limit tells only on which side of the number the result lay.

Assay [1] concerns the target T1, Human Calpain 1/NS1 (Homo sapiens, UniProt P07384).
T1 sequence (P07384 1-714): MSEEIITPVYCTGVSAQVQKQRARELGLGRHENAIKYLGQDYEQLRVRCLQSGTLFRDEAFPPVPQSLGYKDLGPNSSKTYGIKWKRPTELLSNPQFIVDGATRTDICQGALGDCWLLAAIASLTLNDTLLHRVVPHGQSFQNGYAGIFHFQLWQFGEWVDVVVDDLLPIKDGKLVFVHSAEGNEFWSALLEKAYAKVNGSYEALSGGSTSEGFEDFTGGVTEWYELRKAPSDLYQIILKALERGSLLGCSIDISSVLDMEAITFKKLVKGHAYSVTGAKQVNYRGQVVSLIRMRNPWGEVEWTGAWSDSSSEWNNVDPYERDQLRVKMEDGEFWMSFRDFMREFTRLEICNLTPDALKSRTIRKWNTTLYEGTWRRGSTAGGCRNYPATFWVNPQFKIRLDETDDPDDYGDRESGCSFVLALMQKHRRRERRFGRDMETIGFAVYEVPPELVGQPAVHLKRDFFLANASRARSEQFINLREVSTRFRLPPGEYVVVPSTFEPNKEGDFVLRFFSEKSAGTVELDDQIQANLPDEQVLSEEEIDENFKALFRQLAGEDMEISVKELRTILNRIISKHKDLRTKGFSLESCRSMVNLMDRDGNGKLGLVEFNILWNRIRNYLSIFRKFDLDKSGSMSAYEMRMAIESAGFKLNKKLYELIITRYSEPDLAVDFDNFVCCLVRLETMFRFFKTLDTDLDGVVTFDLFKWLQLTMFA
T1 sequence (P04632 1-268 partner): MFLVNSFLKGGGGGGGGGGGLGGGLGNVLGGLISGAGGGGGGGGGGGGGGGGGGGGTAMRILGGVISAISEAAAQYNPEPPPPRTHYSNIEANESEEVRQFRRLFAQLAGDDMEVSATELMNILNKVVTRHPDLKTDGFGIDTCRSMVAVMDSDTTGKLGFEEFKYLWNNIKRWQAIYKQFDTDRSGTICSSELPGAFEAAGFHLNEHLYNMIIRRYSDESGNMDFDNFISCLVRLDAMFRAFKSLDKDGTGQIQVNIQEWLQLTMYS
The experiment in a line: Calpain inhibition continuous fluorescence (FRET) assay, Human Calpain 1/NS1. It is filed as biochemical. The note with it: read-out: Human Calpain 1/NS1 IC50. In outline: (§1)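 Fluorescence increase from the cleaved 5-FAM/QXL 520 substrate, read at 490/520 nm, gave activity. Calcium was supplied with the substrate to activate the enzyme in situ after a 25C enzyme-inhibitor preincubation, and IC50s were fit from initial slopes.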

Assay [2] has as its target T2, Human Calpain 2/NS1 (Homo sapiens, UniProt P17655).
T2 sequence (P17655 1-700): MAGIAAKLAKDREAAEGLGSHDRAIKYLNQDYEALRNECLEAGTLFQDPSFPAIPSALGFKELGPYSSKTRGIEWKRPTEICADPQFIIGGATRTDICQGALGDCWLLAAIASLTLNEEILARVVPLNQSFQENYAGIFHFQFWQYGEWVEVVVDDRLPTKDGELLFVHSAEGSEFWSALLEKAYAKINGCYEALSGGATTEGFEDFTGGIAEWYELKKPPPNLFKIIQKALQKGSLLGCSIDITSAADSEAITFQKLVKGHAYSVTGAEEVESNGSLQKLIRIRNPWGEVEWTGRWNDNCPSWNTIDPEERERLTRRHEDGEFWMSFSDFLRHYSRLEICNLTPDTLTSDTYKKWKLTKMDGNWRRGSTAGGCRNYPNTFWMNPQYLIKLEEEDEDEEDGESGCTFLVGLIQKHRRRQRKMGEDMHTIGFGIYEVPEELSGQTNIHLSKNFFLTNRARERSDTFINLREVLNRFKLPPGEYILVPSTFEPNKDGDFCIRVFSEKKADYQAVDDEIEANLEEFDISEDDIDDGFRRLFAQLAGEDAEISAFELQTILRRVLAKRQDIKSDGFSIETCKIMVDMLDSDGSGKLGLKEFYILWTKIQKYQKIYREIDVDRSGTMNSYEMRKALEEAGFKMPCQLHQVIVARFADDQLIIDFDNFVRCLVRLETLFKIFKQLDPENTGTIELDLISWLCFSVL
T2 sequence (P04632 1-268 partner): T1 sequence (P04632 1-268 partner)
The assay is described as follows: Calpain inhibition continuous fluorescence (FRET) assay, Human Calpain 2/NS1. It is filed as biochemical. The conditions noted are these: read-out: Human Calpain 2/NS1 IC50. In a few lines: as §1

For assay [3], the target named is T3, Human Calpain 9/NS1 (Homo sapiens, UniProt O14815).
T3 sequence (O14815 1-690): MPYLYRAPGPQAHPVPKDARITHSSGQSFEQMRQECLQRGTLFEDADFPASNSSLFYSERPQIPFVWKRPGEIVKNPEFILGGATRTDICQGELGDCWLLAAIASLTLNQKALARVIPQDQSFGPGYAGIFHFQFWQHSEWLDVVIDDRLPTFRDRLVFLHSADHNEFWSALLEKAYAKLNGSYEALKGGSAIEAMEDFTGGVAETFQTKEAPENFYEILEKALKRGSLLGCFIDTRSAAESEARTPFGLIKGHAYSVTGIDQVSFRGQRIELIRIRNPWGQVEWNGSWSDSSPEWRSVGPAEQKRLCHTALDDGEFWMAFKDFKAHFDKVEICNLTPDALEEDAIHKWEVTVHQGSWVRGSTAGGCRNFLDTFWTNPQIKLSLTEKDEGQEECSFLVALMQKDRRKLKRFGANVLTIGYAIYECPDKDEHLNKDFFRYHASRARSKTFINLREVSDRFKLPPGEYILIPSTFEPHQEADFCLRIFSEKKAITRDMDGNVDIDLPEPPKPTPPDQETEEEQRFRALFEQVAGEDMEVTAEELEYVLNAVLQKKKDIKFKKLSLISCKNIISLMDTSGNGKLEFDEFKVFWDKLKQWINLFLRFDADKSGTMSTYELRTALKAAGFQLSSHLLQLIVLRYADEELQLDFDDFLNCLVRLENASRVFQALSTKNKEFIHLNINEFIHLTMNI
T3 sequence (P04632 1-268 partner): T1 sequence (P04632 1-268 partner)
The assay is described as follows: Calpain inhibition continuous fluorescence (FRET) assay, Human Calpain 9/NS1. The format is biochemical. The conditions noted are these: read-out: Human Calpain 9/NS1 IC50. In outline:
as §1

Assay [4] deals with Calpain activity in SH-SY5Y cells (SBDP-150). The assay is described as follows: SH-SY5Y Spectrin western blot assay (SBDP-150 breakdown product, A23187-induced). The format is cell-based. The note with it: SH-SY5Y cells, read-out: SH-SY5Y Spectrin IC50. (Immunoblotting shows a protein as a band on a membrane.)
[5] abbreviates: Homo sapiens, Column D, A23187-induced SBDP-150.
Where [6] appears, read: Homo sapiens, A23187-induced SBDP-150, western blot.

With `Cc1cc(C(=O)N[C@@H](Cc2ccccc2)C(=O)C(N)=O)n(-c2cccc(CNC(=O)c3ccccc3)c2)n1` [Compound 141, (S)—N-(4-amino-3,4-dioxo-1-phenylbutan-2-yl)-1-(3-(benzamidomethyl)phenyl)-3-methyl-1H-pyrazole-5-carboxamide], the IC50 in assay [1] (Column A) is under 3 µM; in assay [2] (Column B), under 3 µM; in assay [3] (Column C) it was under 3 µM; in assay [4] (setting [5]), 10 to 25 µM.

On to `Cn1cc(C(=O)NC(Cc2ccccc2)C(=O)C(N)=O)c(Cc2ccccc2)n1` (stereo not shown) [Compound 483, N-(4-amino-3,4-dioxo-1-phenylbutan-2-yl)-3-benzyl-1-methyl-1H-pyrazole-4-carboxamide], for which the IC50 in assay [1] was over 10 µM; in assay [2] it was 3 to 10 µM; in assay [3] it was under 3 µM; in assay [4] (setting [6]), over 25 µM.

For the compound `Cc1cc(C(=O)NC(Cc2ccccc2)C(=O)C(N)=O)n(-c2ncccc2C)n1` (stereo not shown) [Compound 345, N-(4-amino-3,4-dioxo-1-phenylbutan-2-yl)-3-methyl-1-(3-methylpyridin-2-yl)-1H-pyrazole-5-carboxamide], the IC50 is over 10 µM in assay [1], over 10 µM in assay [2], over 10 µM in assay [3] and over 25 µM in assay [4] (setting [6]).

In the case of `Cn1cc(C(=O)N[C@@H](Cc2ccccc2)C(=O)C(=O)NCCNC(=O)OC(C)(C)C)c(-c2ccccc2)n1` [Compound 340, Tert-butyl (S)-(2-(3-(1-methyl-3-phenyl-1H-pyrazole-4-carboxamido)-2-oxo-4-phenylbutanamido)ethyl)carbamate], the IC50 in assay [1] is under 3 µM; in assay [2], under 3 µM; in assay [3], under 3 µM; in assay [4] (setting [6]), over 25 µM.

For the compound `Cc1cc(C(=O)N[C@@H](Cc2ccccc2)C(=O)C(N)=O)n(-c2ccc(CNC(=O)CCc3ccccc3)cc2)n1` [Compound 155, (S)—N-(4-amino-3,4-dioxo-1-phenylbutan-2-yl)-3-methyl-1-(4-((3-phenylpropanamido)methyl)phenyl)-1H-pyrazole-5-carboxamide], the IC50 in assay [1] (Column A) is under 3 µM; in assay [2] (Column B), under 3 µM; in assay [3] (Column C) it was under 3 µM; in assay [4] (setting [5]), over 25 µM.

For the compound `Cc1cccc2sc(-n3nc(C(=O)N[C@@H](Cc4ccccc4)C(=O)C(N)=O)cc3C)nc12` [Compound 299, (S)—N-(4-amino-3,4-dioxo-1-phenylbutan-2-yl)-5-methyl-1-(4-methylbenzo[d]thiazol-2-yl)-1H-pyrazole-3-carboxamide], the IC50 in assay [1] (Column A) was under 3 µM; in assay [2] (Column B), under 3 µM; in assay [3] (Column C) it was under 3 µM; in assay [4] (setting [5]) it was 10 to 25 µM.

Regarding `Cc1cc(C(=O)N[C@@H](Cc2ccccc2)C(=O)C(N)=O)n(-c2cccc(CNC(=O)OCc3ccccc3)c2)n1` [Compound 343, Benzyl (S)-(3-(5-((4-amino-3,4-dioxo-1-phenylbutan-2-yl)carbamoyl)-3-methyl-1H-pyrazol-1-yl)benzyl)carbamate], the IC50 is under 3 µM in assay [1], under 3 µM in assay [2], under 3 µM in assay [3] and 10 to 25 µM in assay [4] (setting [6]).

Consider “(S)—N-(4-(((1H-benzo[d]imidazol-5-yl)methyl)amino)-3,4-dioxo-1-phenyl butan-2-yl)-3-methyl-5-phenylisoxazole-4-carboxamide [Compound 493]”, for which the IC50 in assay [1] was under 3 µM; in assay [2] it was under 3 µM; in assay [3], 3 to 10 µM; in assay [4] (A23187-induced SBDP-150, western blot) it was over 25 µM.

For `C#CCOCc1ccc(-c2nn(C)cc2C(=O)N[C@@H](Cc2ccccc2)C(=O)CF)c(F)c1` [Compound 521, (S)—N-(4-fluoro-3-oxo-1-phenylbutan-2-yl)-3-(2-fluoro-4-((prop-2-yn-1-yloxy)methyl)phenyl)-1-methyl-1H-pyrazole-4-carboxamide], the IC50 in assay [1] is under 3 µM; in assay [2], under 3 µM; in assay [3], 3 to 10 µM; in assay [4] (setting [6]) it was 10 to 25 µM.

In the case of `Cc1cccnc1-n1nc(C(=O)NC(Cc2ccccc2)C(=O)C(N)=O)cc1C` (stereo not shown) [Compound 346, N-(4-amino-3,4-dioxo-1-phenylbutan-2-yl)-5-methyl-1-(3-methylpyridin-2-yl)-1H-pyrazole-3-carboxamide], the IC50 in assay [1] is over 10 µM; in assay [2] it was 3 to 10 µM; in assay [3], 3 to 10 µM; in assay [4] (setting [6]) it was over 25 µM.

With `Cn1cc(C(=O)NC(Cc2ccccc2)C(=O)C(N)=O)c(-c2ccnc3ccccc23)n1` (stereo not shown) [Compound 611, N-(4-amino-3,4-dioxo-1-phenylbutan-2-yl)-1-methyl-3-(quinolin-4-yl)-1H-pyrazole-4-carboxamide], the IC50 was under 3 µM in assay [1], under 3 µM in assay [2], under 3 µM in assay [3] and 10 to 25 µM in assay [4] (setting [6]).

`Cn1cc(C(=O)NC(Cc2ccccc2)C(=O)C(N)=O)c(-c2cccc(C(F)(F)F)c2F)n1` (stereo not shown) [Compound 516, N-(4-amino-3,4-dioxo-1-phenylbutan-2-yl)-3-(2-fluoro-3-(trifluoromethyl)phenyl)-1-methyl-1H-pyrazole-4-carboxamide]: the IC50 in assay [1] was under 3 µM; in assay [2] it was under 3 µM; in assay [3], under 3 µM; in assay [4] (setting [6]), over 25 µM.

With `Cc1nc(-c2cccc3c2OCO3)c(C(=O)NC(Cc2ccccc2)C(=O)C(N)=O)o1` (stereo not shown) [Compound 609, N-(4-amino-3,4-dioxo-1-phenylbutan-2-yl)-4-(benzo[d][1,3]dioxol-4-yl)-2-methyloxazole-5-c arboxamide], the IC50 in assay [1] was under 3 µM; in assay [2] it was under 3 µM; in assay [3], under 3 µM; in assay [4] (setting [6]), under 10 µM.
